Assay results from the supplement of paper PMC10307832.

Each cell line was assayed with N[C@@H]1CCCN(c2c(/C=C3\SC(=O)NC3=O)cccc2-c2ccccc2)C1 [AZD1208] + COc1cccc2cc(-c3nc([C@H]4CC[C@H](C(=O)O)CC4)n4ncnc(N)c34)[nH]c12 [OSI-027] (partner 0.5 µM) (assay: relative viability (nuclei count vs DMSO), 5 days (fraction); higher = more cells survive). Settings: first compound 8 µM.
Outline: (§1)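 Cells from lung cancer lines were seeded into 1536-well plates and, one day later, dosed by pin tool. Treatments were either a single drug or a fixed dose of an anchor drug with five library-drug doses (not always all listed) in √10 steps. After 5 days, nuclei were stained in a one-step fixation (final 0.05% Triton X-100, 1% formaldehyde, 1 ug/ml Hoechst) and counted on 4× images, and relative viability is the treated-to-vehicle nuclei ratio, as the median of duplicate plates.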

Cell Line	relative viability
NCI-H1437	0.764
NCI-H1755	0.437
NCI-H2085	0.661
HCC-15	0.437
PC-3 [JPC-3]	0.628
EKVX	0.648
LC-2-ad	0.651
NCI-H1563	0.596
NCI-H1944	0.249
NCI-H1975	0.594

What follows are cell lines tested with CN1CCN(CC1)C2=CC(=C(C=C2)NC3=NC(=C(S3)C(=O)C4=C(C=CC=C4Cl)Cl)N)OC [XMD14-99] + CS(=O)(=O)CCNCc1ccc(-c2ccc3ncnc(Nc4ccc(OCc5cccc(F)c5)c(Cl)c4)c3c2)o1 [Lapatinib] (partner 2 µM) in the same assay as above. Settings: first compound 0.08 µM.
Outline: as §1

Cell Line	relative viability
HCC-44	1.12
LU99A	0.94
BEN	0.738
HARA	0.701
HCC-78	0.911
LCLC-97TM1	1.06
NCI-H2023	0.737
A-427	1.14
NCI-H460	0.863
NCI-H727	0.791
NCI-H1734	1.01
NCI-H520	0.845
NCI-H2405	1.1
SW 1573	1.06
201T	1.02
NCI-H1915	1
HCC-827	0.182
LXF-289	0.923
NCI-H2347	0.957

Cell Line	relative viability
NCI-H650	0.92
CAL-12T	0.603
NCI-H1651	0.779
EPLC-272H	0.927
NCI-H23	1.08
NCI-H1792	0.995
NCI-H1355	1.03
NCI-H322M	0.573
NCI-H1437	0.804
NCI-H1755	1.08
NCI-H2085	0.76
HCC-15	0.867
PC-3 [JPC-3]	0.491
EKVX	0.187
LC-2-ad	0.955
NCI-H1563	0.85
NCI-H1944	0.748
NCI-H1975	0.906

Same assay, conditions: first compound 0.8 µM

Cell Line	relative viability
HCC-44	0.951
LU99A	0.976
BEN	0.825
HARA	1.03
HCC-78	0.751
LCLC-97TM1	0.815
NCI-H2023	0.989
A-427	0.984
NCI-H460	0.977
NCI-H727	0.935
NCI-H1734	0.997
NCI-H520	0.88
NCI-H2405	1.16
SW 1573	1.17
201T	1.05
NCI-H1915	0.974
HCC-827	0.205
LXF-289	0.885
NCI-H2347	0.907

Cell Line	relative viability
NCI-H650	0.956
CAL-12T	0.549
NCI-H1651	0.823
EPLC-272H	0.943
NCI-H23	1.29
NCI-H1792	0.89
NCI-H1355	0.958
NCI-H322M	0.583
NCI-H1437	0.745
NCI-H1755	1.01
NCI-H2085	0.794
HCC-15	0.894
PC-3 [JPC-3]	0.443
EKVX	0.18
LC-2-ad	0.926
NCI-H1563	1.1
NCI-H1944	0.828
NCI-H1975	0.938

Same assay, conditions: first compound 2.53 µM

Cell Line	relative viability
HCC-44	1.09
LU99A	0.879
BEN	0.661
HARA	0.647
HCC-78	0.858
LCLC-97TM1	0.786
NCI-H2023	0.828
A-427	0.999
NCI-H460	0.927
NCI-H727	0.721
NCI-H1734	1.05
NCI-H520	0.834
NCI-H2405	0.971
SW 1573	1.21
201T	1
NCI-H1915	0.959
HCC-827	0.188
LXF-289	0.866
NCI-H2347	0.793

Cell Line	relative viability
NCI-H650	0.663
CAL-12T	0.545
NCI-H1651	0.79
EPLC-272H	0.924
NCI-H23	1.14
NCI-H1792	0.912
NCI-H1355	1.01
NCI-H322M	0.609
NCI-H1437	0.573
NCI-H1755	0.955
NCI-H2085	0.735
HCC-15	0.792
PC-3 [JPC-3]	0.41
EKVX	0.193
LC-2-ad	0.908
NCI-H1563	0.906
NCI-H1944	0.843
NCI-H1975	0.801

Same assay, conditions: first compound 8 µM

Cell Line	relative viability
HCC-44	0.861
LU99A	0.695
BEN	0.627
HARA	0.362
HCC-78	0.648
LCLC-97TM1	0.583
NCI-H2023	0.372
A-427	0.898
NCI-H460	0.679
NCI-H727	0.484
NCI-H1734	0.825
NCI-H520	0.652
NCI-H2405	0.778
SW 1573	0.985
201T	0.936
NCI-H1915	0.911
HCC-827	0.197
LXF-289	0.704
NCI-H2347	0.659

Cell Line	relative viability
NCI-H650	0.774
CAL-12T	0.547
NCI-H1651	0.705
EPLC-272H	0.846
NCI-H23	0.881
NCI-H1792	0.536
NCI-H1355	0.61
NCI-H322M	0.598
NCI-H1437	0.458
NCI-H1755	0.827
NCI-H2085	0.693
HCC-15	0.611
PC-3 [JPC-3]	0.387
EKVX	0.163
LC-2-ad	0.764
NCI-H1563	0.824
NCI-H1944	0.613
NCI-H1975	0.727
